Patent publication US8415469B2, “Compounds and methods for kinase modulation, and indications therefor” (Plexxikon Inc., priority 2005, dated 2013)
pIC50: −log10 of the molar value.

Experiments:
Type in all cases: biochemical
Btk = biological target: T1, Btk (Homo sapiens, UniProt Q06187); assay: Z'-Lyte FRET kinase assay (Invitrogen), Btk; conditions: read-out: IC50, activity toward kinase Btk
T1 construct: purchased Invitrogen (assay run by Invitrogen)

Syk = Syk (Homo sapiens, UniProt P43405); assay: AlphaScreen kinase assay, Syk; conditions: read-out: IC50, activity toward kinase Syk
Text: (§1) AlphaScreen assay was used to screen additional kinases. The assay is similarly dependent on the phosphorylation of a peptide substrate. In this assay, an antibody that recognizes phosphorylated substrate is bound to an acceptor bead. The peptide substrate is attached to biotin, which binds to a donor head that contains streptavidin. Thus phosphorylated substrate is bound by antibody and streptavidin, bringing the donor and acceptor heads into close proximity when kinase is not inhibited. The donor produces singlet oxygen which results in emission from the acceptor when they are in close proximity. Conversely, when kinase is inhibited, the donor and acceptor beads are not associated and the emission from the acceptor is reduced.
(§2) AlphaScreen assays were done using compounds dissolved in DMSO to a concentration of 20 mM. The compounds were diluted accordingly to the desired final concentrations in each sample well, using 1:3 serial dilution for a total of 8 concentration points.

FGFR1 = biological target: T2, FGFR1 (Homo sapiens, UniProt P11362, C488A/C584S); assay: AlphaScreen kinase assay, FGFR1; conditions: read-out: IC50, activity toward kinase FGFR
T2 construct: P1351.pET N6 BI-PTP FGFR A458-E765-X C488A, C584S; made in house; host or cells: E. coli (PTP1B co-expressed)

Ret = biological target: T3, Ret (Homo sapiens, UniProt P07949); assay: AlphaScreen kinase assay, Ret; conditions: read-out: IC50, activity toward kinase Ret
T3 construct: P1378.pET-SF BI-PTP RET H661-R1012 HIS; made in house
T3 sequence (P07949 with tags, fused parts or gaps): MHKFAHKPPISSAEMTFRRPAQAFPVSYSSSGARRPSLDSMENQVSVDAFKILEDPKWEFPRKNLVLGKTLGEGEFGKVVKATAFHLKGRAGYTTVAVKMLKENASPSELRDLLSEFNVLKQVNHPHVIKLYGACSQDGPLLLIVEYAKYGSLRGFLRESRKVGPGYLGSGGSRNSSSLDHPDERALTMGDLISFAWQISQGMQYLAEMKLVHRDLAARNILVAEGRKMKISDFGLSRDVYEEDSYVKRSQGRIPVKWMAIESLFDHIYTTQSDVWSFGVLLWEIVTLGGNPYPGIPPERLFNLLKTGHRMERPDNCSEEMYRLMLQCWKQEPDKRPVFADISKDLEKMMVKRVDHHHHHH

Kdr = biological target: T4, Kdr (Homo sapiens, UniProt P35968); assay: Z'-Lyte FRET kinase assay (Invitrogen), Kdr; conditions: read-out: IC50, activity toward kinase Kdr
T4 construct: purchased Invitrogen (assay run by Invitrogen)

Jnk3 = biological target: T5, Jnk3 (Homo sapiens, UniProt P53779); assay: AlphaScreen kinase assay, Jnk3; conditions: read-out: IC50, activity toward kinase Jnk3
T5 construct: purchased Upstate Biotechnology

B-Raf V600E = biological target: T6, B-Raf V600E (Homo sapiens, UniProt P15056, V600E); assay: AlphaScreen kinase assay, B-Raf V600E; conditions: read-out: IC50, activity toward kinase B-Raf V600E
T6 construct: P4254. pFastBacBD-CDC37 BRAF D437-K722-X, V600E; His6 with pFastBac HT leader (TEV site) (N); made in house; host or cells: Sf9 (baculovirus; chaperone CDC37 co-expressed)

Fak = biological target: T7, Fak (Homo sapiens, UniProt Q05397); assay: AlphaScreen kinase assay, Fak; conditions: read-out: IC50, activity toward kinase Fak
T7 construct: P1358.pFastBacHtb FAK S411-Q686-X; His6 with pFastBacHTb leader (TEV site) (N); made in house; host or cells: Sf9 (baculovirus)

Stk6 = biological target: T8, Stk6 (Homo sapiens, UniProt O14965); assay: Z'-Lyte FRET kinase assay (Invitrogen), Stk6; conditions: read-out: IC50, activity toward kinase Stk6
T8 construct: purchased Invitrogen (Carlsbad, Calif.), screening service
T8 sequence (O14965 1-403): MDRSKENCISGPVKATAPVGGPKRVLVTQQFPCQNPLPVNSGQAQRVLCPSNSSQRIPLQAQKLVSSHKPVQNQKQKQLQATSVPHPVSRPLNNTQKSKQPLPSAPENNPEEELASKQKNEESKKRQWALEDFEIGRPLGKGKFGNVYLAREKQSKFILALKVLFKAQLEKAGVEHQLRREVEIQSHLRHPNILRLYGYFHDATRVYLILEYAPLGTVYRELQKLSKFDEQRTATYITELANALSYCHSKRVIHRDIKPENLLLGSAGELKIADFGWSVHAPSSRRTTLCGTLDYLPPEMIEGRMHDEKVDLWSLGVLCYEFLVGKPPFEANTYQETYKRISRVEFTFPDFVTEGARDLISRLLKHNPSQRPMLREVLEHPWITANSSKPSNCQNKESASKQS

B-Raf = biological target: T9, B-Raf (Homo sapiens, UniProt P15056); assay: AlphaScreen kinase assay, B-Raf; conditions: read-out: IC50, activity toward kinase B-Raf
T9 construct: purchased Upstate Biotechnology

c-Raf-1 = biological target: T10, c-Raf-1 (Homo sapiens, UniProt P04049); assay: AlphaScreen kinase assay, c-Raf-1; conditions: read-out: IC50, activity toward kinase c-Raf-1
T10 construct: purchased Upstate Biotechnology

Src = biological target: T11, Src (Homo sapiens, UniProt P12931); assay: AlphaScreen kinase assay, Src; conditions: read-out: IC50, activity toward kinase Src
T11 construct: P1144. pET-N6 BI-PTP SRC V86-L536-X; made in house

Fms = biological target: T12, Fms (Homo sapiens, UniProt P07333); assay: AlphaScreen kinase assay, Fms; conditions: read-out: IC50, activity toward kinase Fms
T12 construct: purchased Upstate Biotechnology

Brk = Brk (Homo sapiens, UniProt Q13882); assay: AlphaScreen kinase assay, Brk; conditions: read-out: IC50, activity toward kinase Brk
Text: as §1, §2

Csk = Csk (Homo sapiens, UniProt P41240); assay: AlphaScreen kinase assay, Csk; conditions: read-out: IC50, activity toward kinase Csk
Text: as §1, §2

Kit = biological target: T13, Kit (Homo sapiens, UniProt P10721); assay: AlphaScreen kinase assay, Kit; conditions: read-out: IC50, activity toward kinase Kit
T13 construct: P1332.N6 BI PTP KIT M552-K948-X COD; His6 (N); made in house; host or cells: E. coli (PTP1B co-expressed)

Frk = Frk (Homo sapiens, UniProt P42685); assay: AlphaScreen kinase assay, Frk; conditions: read-out: IC50, activity toward kinase Frk
Text: as §1, §2

Jnk1 = biological target: T14, Jnk1 (Homo sapiens, UniProt P45983); assay: AlphaScreen kinase assay, Jnk1; conditions: read-out: IC50, activity toward kinase Jnk1
T14 construct: purchased Upstate Biotechnology

TEC = biological target: T15, TEC (Homo sapiens, UniProt P42680); assay: AlphaScreen kinase assay, TEC; conditions: read-out: IC50, activity toward kinase TEC
T15 sequence (P42680 1-631): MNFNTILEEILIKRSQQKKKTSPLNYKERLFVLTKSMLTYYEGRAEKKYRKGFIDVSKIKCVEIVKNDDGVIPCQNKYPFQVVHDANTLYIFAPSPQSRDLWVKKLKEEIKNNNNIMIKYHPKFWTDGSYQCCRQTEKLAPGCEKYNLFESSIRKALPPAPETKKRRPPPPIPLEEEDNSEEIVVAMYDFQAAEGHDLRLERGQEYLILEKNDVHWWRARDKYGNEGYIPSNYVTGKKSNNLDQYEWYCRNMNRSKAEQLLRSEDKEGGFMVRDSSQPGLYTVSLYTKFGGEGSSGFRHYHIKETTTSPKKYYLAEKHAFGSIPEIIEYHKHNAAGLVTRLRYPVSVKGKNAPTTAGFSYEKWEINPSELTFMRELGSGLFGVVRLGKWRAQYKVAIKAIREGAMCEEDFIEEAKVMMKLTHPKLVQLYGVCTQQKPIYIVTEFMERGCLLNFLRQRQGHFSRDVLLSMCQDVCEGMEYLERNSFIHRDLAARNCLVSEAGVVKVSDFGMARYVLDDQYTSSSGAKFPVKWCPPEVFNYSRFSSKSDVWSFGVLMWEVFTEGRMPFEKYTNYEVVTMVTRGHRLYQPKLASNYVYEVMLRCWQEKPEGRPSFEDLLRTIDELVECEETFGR
Text: as §1, §2

Measured: pIC50

Chain of Brk (Q13882 whole entry): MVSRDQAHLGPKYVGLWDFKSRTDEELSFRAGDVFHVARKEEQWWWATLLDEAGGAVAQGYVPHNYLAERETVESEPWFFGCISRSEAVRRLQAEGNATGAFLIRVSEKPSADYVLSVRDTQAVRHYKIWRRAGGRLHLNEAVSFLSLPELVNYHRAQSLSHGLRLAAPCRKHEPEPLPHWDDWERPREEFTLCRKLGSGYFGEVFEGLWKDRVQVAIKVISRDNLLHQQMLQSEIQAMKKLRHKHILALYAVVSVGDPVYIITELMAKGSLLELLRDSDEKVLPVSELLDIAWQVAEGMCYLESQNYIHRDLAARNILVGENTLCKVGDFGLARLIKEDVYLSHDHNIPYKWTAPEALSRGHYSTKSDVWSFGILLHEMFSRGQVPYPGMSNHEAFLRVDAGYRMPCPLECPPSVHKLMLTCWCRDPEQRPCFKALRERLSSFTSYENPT
Chain of Frk (P42685 whole entry): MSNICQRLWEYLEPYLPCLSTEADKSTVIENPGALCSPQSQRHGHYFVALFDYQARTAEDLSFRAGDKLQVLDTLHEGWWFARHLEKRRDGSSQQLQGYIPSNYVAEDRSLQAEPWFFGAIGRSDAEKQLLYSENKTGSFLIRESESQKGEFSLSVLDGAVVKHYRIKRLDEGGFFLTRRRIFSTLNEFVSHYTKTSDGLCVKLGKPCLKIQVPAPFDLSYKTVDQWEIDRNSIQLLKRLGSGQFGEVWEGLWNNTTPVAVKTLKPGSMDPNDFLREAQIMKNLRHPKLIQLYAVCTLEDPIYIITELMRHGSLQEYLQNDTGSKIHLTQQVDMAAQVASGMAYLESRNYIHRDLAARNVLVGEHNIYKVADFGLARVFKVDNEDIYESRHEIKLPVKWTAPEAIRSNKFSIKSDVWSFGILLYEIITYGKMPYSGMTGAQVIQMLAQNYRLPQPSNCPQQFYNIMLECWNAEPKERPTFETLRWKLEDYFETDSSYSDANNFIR
T9 sequence (P15056 whole entry): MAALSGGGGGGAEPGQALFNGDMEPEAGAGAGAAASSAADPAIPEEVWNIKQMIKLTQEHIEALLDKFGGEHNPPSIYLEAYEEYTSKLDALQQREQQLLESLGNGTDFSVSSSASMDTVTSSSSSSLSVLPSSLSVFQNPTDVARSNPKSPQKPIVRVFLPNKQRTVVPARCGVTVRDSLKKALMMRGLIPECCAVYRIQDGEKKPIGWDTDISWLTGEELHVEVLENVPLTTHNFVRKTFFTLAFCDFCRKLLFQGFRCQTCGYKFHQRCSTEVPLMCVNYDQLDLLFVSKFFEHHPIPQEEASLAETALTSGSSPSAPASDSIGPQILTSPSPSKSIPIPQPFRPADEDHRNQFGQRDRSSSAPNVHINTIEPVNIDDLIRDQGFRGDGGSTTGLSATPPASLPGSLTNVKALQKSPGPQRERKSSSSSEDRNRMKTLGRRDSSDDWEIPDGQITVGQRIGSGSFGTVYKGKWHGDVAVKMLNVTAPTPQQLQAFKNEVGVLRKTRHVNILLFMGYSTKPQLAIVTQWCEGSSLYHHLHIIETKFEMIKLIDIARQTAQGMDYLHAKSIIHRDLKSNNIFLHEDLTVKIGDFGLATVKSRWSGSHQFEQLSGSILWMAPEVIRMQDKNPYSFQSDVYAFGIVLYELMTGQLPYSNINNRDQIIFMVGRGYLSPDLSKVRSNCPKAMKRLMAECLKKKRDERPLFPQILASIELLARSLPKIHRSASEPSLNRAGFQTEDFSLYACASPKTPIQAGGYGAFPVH
T2 sequence (P11362 458-765 C488A/C584S): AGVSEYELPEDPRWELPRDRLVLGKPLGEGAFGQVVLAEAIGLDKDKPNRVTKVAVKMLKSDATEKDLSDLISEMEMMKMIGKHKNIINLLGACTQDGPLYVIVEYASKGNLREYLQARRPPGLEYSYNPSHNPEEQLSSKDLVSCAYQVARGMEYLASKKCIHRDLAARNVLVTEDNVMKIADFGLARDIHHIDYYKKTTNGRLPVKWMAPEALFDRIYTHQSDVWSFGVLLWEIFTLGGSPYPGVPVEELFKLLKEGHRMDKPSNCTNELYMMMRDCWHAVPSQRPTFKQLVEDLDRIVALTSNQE
Chain of Csk (P41240 whole entry): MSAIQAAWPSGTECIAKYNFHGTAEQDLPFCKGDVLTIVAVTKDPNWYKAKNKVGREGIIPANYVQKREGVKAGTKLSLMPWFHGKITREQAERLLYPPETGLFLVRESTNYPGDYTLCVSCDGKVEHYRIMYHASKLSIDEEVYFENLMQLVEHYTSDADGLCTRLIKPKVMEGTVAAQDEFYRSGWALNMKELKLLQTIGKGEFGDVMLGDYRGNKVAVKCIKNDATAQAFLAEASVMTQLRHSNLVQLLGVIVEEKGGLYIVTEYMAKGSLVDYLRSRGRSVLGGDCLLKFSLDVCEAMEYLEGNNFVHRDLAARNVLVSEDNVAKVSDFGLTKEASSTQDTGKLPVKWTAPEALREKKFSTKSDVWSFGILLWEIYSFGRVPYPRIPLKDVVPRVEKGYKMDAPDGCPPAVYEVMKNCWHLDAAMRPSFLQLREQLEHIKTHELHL
T7 sequence (Q05397 411-686): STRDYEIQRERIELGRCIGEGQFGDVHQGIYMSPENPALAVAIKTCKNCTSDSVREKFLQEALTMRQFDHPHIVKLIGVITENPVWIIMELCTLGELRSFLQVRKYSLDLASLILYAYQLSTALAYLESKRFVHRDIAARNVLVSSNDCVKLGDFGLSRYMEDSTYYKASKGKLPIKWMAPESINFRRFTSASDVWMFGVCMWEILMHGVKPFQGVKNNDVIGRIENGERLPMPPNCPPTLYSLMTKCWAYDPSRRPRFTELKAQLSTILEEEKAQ
T6 sequence (P15056 with tags, fused parts or gaps V600E): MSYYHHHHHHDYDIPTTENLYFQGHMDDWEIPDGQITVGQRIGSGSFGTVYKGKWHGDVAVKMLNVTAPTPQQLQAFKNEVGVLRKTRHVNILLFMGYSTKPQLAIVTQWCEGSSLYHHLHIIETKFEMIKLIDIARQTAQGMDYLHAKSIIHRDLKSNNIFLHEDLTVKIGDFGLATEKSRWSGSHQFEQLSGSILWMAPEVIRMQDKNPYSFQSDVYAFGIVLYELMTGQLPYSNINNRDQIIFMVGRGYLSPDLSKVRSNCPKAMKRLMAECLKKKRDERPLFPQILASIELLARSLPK
T12 sequence (P07333 20-972): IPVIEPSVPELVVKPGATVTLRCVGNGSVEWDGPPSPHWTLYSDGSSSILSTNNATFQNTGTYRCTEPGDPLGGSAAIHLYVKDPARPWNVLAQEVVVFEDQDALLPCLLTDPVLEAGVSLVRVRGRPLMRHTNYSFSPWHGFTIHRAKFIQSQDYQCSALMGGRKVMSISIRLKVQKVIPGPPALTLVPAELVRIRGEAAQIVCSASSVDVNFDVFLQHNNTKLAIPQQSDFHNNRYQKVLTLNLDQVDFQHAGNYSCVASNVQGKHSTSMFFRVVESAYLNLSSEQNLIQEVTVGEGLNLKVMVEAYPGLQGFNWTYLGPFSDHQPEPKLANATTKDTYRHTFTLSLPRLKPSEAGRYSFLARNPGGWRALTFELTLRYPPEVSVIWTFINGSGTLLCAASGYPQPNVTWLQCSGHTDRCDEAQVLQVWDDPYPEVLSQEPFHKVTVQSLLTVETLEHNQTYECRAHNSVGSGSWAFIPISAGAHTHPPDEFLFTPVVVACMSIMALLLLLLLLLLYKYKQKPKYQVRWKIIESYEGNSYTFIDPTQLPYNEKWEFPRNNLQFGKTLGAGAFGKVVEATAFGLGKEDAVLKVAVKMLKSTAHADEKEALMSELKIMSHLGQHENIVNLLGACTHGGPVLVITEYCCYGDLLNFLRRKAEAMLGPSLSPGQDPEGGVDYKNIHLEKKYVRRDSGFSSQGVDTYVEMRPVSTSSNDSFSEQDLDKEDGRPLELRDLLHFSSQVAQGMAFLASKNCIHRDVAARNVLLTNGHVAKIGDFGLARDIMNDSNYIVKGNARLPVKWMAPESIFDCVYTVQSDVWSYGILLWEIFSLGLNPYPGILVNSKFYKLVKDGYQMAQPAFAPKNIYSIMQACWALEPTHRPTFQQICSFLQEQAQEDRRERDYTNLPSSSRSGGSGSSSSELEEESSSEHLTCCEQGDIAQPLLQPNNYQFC
T10 sequence (P04049 whole entry): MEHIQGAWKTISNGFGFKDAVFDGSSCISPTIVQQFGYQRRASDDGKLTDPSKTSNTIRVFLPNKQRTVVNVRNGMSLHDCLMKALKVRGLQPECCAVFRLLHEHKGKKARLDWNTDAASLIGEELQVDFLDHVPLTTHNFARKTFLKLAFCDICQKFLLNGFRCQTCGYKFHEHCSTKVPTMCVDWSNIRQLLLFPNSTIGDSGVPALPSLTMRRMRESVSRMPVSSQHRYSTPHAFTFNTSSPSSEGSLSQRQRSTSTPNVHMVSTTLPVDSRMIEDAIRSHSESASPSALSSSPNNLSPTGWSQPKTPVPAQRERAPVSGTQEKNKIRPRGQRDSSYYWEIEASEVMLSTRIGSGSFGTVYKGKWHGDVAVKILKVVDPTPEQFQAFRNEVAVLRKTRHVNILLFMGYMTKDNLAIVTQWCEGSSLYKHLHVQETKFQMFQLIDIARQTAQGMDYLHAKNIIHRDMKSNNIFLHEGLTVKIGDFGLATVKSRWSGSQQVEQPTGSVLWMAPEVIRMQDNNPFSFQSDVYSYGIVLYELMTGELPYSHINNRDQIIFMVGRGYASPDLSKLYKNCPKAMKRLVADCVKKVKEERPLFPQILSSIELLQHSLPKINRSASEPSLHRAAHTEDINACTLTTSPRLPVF

O=C(O)/C=C/c1cccc(-c2cnc3[nH]cc(C(=O)c4cccc(Cl)c4Cl)c3c2)c1 [Compound P-0089]
≥ 5.00: Btk | Syk | FGFR1 | Ret | Kdr | Jnk3 | B-Raf V600E

CCCS(=O)(=O)Nc1cccc(C(=O)c2c[nH]c3ncc(Br)cc23)c1F [Compound P-0955, Propane-1-sulfonic acid [3-(5-bromo-1H-pyrrolo[2,3-b]pyridine-3-carbonyl)-2-fluoro-phenyl]-amide]
not listed: Btk | Syk | Ret | Kdr | Jnk3 | Jnk1 | TEC
≥ 5.00: all other assays above

CCCS(=O)(=O)Nc1ccc(F)c(C(=O)c2c[nH]c3ncc(-c4ccc(Cl)cc4)cc23)c1F [Compound P-0956, Propane-1-sulfonic acid {3-[5-(4-chloro-phenyl)-1H-pyrrolo[2,3-b]pyridine-3-carbonyl]-2,4-difluoro-phenyl}-amide]
≥ 5.00: Fak | FGFR1 | Kdr | Src | Jnk1 | Fms | Brk | Csk | Kit | Frk

CCCS(=O)(=O)Nc1cccc(C(=O)c2c[nH]c3ncc(Cl)cc23)c1F [Compound P-1013, propane-1-sulfonic acid [3-(5-chloro-1H-pyrrolo[2,3-b]pyridine-3-carbonyl)-2-fluoro-phenyl]-amide]
not listed: Btk | Syk | FGFR1 | Ret | Kdr | Jnk3 | Jnk1 | TEC
≥ 5.00: all other assays above

O=C(c1c(F)ccc(NS(=O)(=O)N2CCCCC2)c1F)c1c[nH]c2ncc(Cl)cc12 [Compound P-1020, Piperidine-1-sulfonic acid [3-(5-chloro-1H-pyrrolo[2,3-b]pyridine-3-carbonyl)-2,4-difluoro-phenyl]-amide]
not listed: Syk | Ret | Kdr | Jnk3 | Stk6 | Fms | Kit | Jnk1
≥ 5.00: all other assays above
